Measurements published in patent US20090029975A1, “1,3-BENZOTHIAZINONE DERIVATIVE AND USE THEREOF” (TAKEDA PHARMACEUTICAL COMPANY LIMITED, priority 2005, published 2009).

Experiments:
[1] = test system: ARE of rat glutathione S-transferase Ya subunit gene; test: Assay for ARE-dependent transcriptional activation activity (luciferase reporter pGL3-ARE in rat H9c2 cells); assay type: cell-based; settings: rat H9c2 cells transfected with pGL3-ARE; about 24 hours incubation with compound; compound-free group = 100%
Experimental: Rat H9c2 cells were suspended in Dulbecco's Modified Eagle Medium (10% FBS, D-MEM) supplemented with 5% heat-inactivated fetal calf serum to 7×10^4 cells/ml and a 18 ml aliquot was seeded on a Petri dish for cell culture, followed by incubation in 5% CO2 at 37° C. for about 16 hours. ARE ([…]; SEQ ID NO: 1) of rat glutathione S-transferase Ya subunit gene was incorporated into pGL3-Promoter Vector (manufactured by Promega Corp.) and the resulting luciferase reporter vector pGL3-ARE was transfected to the cells using FuGENE6 (Transfection reagent: manufactured by Roche), followed by additional incubation for about 7 hours. After completion of the incubation, the cells were recovered and suspended in 10% FBS-containing D-MEM to 1×10^5 cells/ml. A 100 μl aliquot was seeded on each well of a 96-well plate, followed by incubation in 5% CO2 at 37° C. for about 17 hours. Next, the cells were washed with D-MEM to remove serum, and D-MEM containing a test compound (compound obtained in EXAMPLE 2, 8, 10, 12, 22 or 23) was added to the cells, followed by incubation in 5% CO2 at 37° C. for about 24 hours. After completion of the incubation, 801 each of Steady-Glo Reagent (manufactured by Promega Corp.) was added to each well. After allowing to stand at room temperature for 40 minutes, fluorescence levels by luciferase were determined using a WALLAC ARVO SX (manufactured by Perkin-Elmer). Taking the emitted luminescence of test compound-free group as 100%, the ARE-dependent transcriptional activation was shown in terms of the concentration of test compound, which caused to emit the luminescence of 200% (EC200: μM).

human PPARα = target: T1, human PPARα (Homo sapiens, UniProt Q07869); test: PPARα assay: PPRE-dependent transcriptional activation activity (luciferase reporter in COS-1 cells transfected with PPARα and RXRα); assay type: cell-based; settings: COS-1 cells transfected with PPARα and RXRα expression vectors and pGL3-PPRE4-Tk; about 42 hours incubation with compound; compound-free group = 100%
T1 construct: expressed in transfected cells; host or cells: COS-1 cells
T1 sequence (Q07869 1-468): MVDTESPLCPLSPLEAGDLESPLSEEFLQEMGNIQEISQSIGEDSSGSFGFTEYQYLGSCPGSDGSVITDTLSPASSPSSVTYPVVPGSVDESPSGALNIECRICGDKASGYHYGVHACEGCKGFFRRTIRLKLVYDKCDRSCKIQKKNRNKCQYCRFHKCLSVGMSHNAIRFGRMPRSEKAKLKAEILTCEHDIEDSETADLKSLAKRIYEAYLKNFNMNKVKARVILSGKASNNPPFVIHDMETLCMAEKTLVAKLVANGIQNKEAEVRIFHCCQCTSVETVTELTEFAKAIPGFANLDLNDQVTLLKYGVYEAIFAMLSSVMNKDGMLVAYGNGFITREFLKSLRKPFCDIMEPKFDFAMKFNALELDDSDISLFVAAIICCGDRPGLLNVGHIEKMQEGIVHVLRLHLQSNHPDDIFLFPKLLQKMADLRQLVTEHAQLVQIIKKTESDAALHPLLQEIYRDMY
T1 sequence (P19793 1-462 partner): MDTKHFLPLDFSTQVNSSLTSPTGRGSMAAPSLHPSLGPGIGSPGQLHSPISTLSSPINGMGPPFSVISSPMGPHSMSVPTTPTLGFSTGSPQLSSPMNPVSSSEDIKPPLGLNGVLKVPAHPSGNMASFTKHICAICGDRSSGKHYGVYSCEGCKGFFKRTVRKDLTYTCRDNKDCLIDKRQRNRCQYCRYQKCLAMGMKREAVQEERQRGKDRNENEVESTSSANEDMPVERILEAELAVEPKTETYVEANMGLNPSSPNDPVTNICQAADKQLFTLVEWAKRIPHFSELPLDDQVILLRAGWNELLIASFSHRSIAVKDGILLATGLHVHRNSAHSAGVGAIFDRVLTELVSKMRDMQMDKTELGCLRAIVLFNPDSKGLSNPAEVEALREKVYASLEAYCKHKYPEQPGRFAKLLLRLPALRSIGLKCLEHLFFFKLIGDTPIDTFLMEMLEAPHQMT
Experimental: COS-1 cells were suspended in Dulbecco's Modified Eagle Medium (10% FBS, D-MEM) supplemented with 10% heat-inactivated fetal calf serum to 1×10^5 cells/ml and a 25 ml aliquot was seeded on a 75 cm^2 cell culture flask, followed by incubation in 5% CO2 at 37° C. for about 15 hours. PPARα expression vector pMCMV-neo-rPPARα and RXRα expression vector pMCMV-neo-rRXRα, in which human PPARα gene and human RXRα gene were inserted into pMCMV-neo (manufactured by Promega Corp.) respectively, and Luciferase reporter vector pGL3-PPRE4-Tk, in which four PPREs (aggacaaaggtca; SEQ ID NO: 2) were inserted into pGL3-Promoter Vector (manufactured by Promega Corp.) in tandem, were transfected to the cells using FuGENE6 (Transfection reagent: manufactured by Roche), and then incubation for about 24 hours. After completion of the incubation, the cells were recovered and suspended in 0.1% bovine serum albumin (Sigma)-containing D-MEM to 5×10^4 cells/ml. A 100 μl aliquot was seeded on each well of a 96-well plate, followed by incubation in 5% CO2 at 37° C. for about 4 hours. Next, D-MEM containing a test compound (compound obtained in EXAMPLE 2, 8, 10 or 12) was added thereto, followed by incubation in 5% CO2 at 37° C. for about 42 hours. After completion of the incubation, a 801 aliquot was added to each well of Steady-Glo Reagent (manufactured by Promega Corp.). After allowing to stand for 30 minutes at room temperature, fluorescence levels by luciferase were determined using a WALLAC ARVO SX (manufactured by Perkin-Elmer). Taking the emitted luminescence of test compound-free group as 100%, the PPRE-dependent transcriptional activation was shown in terms of the concentration of test compound, which caused to emit the luminescence of 200% (EC200: μM).

SMILES	melting point [°C]	EC200 (concentration of test compound causing luminescence of 200% of the test compound-free group), ARE-dependent transcriptional activation [1] [µM]	EC200 (concentration of test compound causing luminescence of 200% of the test compound-free group), PPRE-dependent transcriptional activation (human PPARα) [µM]
CCOC(=O)CCc1cc(S(C)(=O)=O)cc(-c2nc(=O)c3ccc(Cl)cc3s2)n1 [EXAMPLE 13, Ethyl 3-[6-(7-chloro-4-oxo-4H-1,3-benzothiazin-2-yl)-4-(methylsulfonyl)pyridin-2-yl]propanoate]	240 to 240.2		
CCN(CC)C(=O)COC(=O)CCc1cc(S(C)(=O)=O)cc(-c2nc(=O)c3ccc(Cl)cc3s2)n1 [EXAMPLE 23, 2-(Diethylamino)-2-oxoethyl 3-[6-(7-chloro-4-oxo-4H-1,3-benzothiazin-2-yl)-4-(methylsulfonyl)pyridin-2-yl]propanoate]		0.6	
Cc1oc(=O)oc1COC(=O)CCc1cc(S(C)(=O)=O)cc(-c2nc(=O)c3ccc(Cl)cc3s2)n1 [compound 20, (5-Methyl-2-oxo-1,3-dioxolen-4-yl)methyl 3-[6-(7-chloro-4-oxo-4H-1,3-benzothiazin-2-yl)-4-(methylsulfonyl)pyridin-2-yl]propanoate]	183.1 to 183.2		
CS(=O)(=O)c1cc(CCC(=O)O)nc(-c2nc(=O)c3ccc(F)cc3s2)c1 [EXAMPLE 10, 3-[6-(7-fluoro-4-oxo-4H-1,3-benzothiazin-2-yl)-4-(methylsulfonyl)pyridin-2-yl]propanoic acid]	235.8 to 236.2	1.7	>100
CS(=O)(=O)c1cc(CCC(=O)O)nc(-c2nc(=O)c3ccc(Cl)cc3s2)c1 [EXAMPLE 8, 3-[6-(7-Chloro-4-oxo-4H-1,3-benzothiazin-2-yl)-4-(methylsulfonyl)pyridin-2-yl]propanoic acid]	228.8 to 228.9	0.94	>100
Cc1ccc2c(=O)nc(-c3cc(S(C)(=O)=O)cc(CCC(=O)O)n3)sc2c1 [EXAMPLE 12, 3-[6-(7-Methyl-4-oxo-4H-1,3-benzothiazin-2-yl)-4-(methylsulfonyl)pyridin-2-yl]propanoic acid]	238.9 to 239.1	1.6	>100
CC(C)(C)OC(=O)CCc1cc(S(C)(=O)=O)cc(-c2nc(=O)c3ccc(Cl)cc3s2)n1 [compound 7, Tert-butyl 3-[6-(7-chloro-4-oxo-4H-1,3-benzothiazin-2-yl)-4-(methylsulfonyl)pyridin-2-yl]propanoate]	184.3 to 184.5		
Cc1ccc2c(=O)nc(-c3cc(S(C)(=O)=O)cc(CCC(=O)OC(C)(C)C)n3)sc2c1 [compound 11, Tert-butyl 3-[6-(7-methyl-4-oxo-4H-1,3-benzothiazin-2-yl)-4-(methylsulfonyl)pyridin-2-yl]propanoate]	178 to 178.4		
COC(=O)CCc1cc(S(C)(=O)=O)cc(-c2nc(=O)c3ccc(Cl)cc3s2)n1 [EXAMPLE 17, Methyl 3-[6-(7-chloro-4-oxo-4H-1,3-benzothiazin-2-yl)-4-(methylsulfonyl)pyridin-2-yl]propanoate]	203.4 to 203.6		
CC(C)(C)OC(=O)CCc1cc(S(C)(=O)=O)cc(-c2nc(=O)c3ccc(F)cc3s2)n1 [compound 9, Tert-butyl 3-[6-(7-fluoro-4-oxo-4H-1,3-benzothiazin-2-yl)-4-(methylsulfonyl)pyridin-2-yl]propanoate]	177.6 to 178		
CCN(CC)CCOC(=O)CCc1cc(S(C)(=O)=O)cc(-c2nc(=O)c3ccc(Cl)cc3s2)n1 [EXAMPLE 22, 2-(Diethylamino)ethyl 3-[6-(7-chloro-4-oxo-4H-1,3-benzothiazin-2-yl)-4-(methylsulfonyl)pyridin-2-yl]propanoate]	150.5 to 151.5	0.61	
CS(=O)(=O)c1cc(CCC(=O)O)nc(-c2nc(=O)c3ccccc3s2)c1 [EXAMPLE 2, 3-[6-(4-Oxo-4H-1,3-benzothiazin-2-yl)-4-(methylsulfonyl)pyridin-2-yl]propanoic acid]		1.3	>100
CS(=O)(=O)c1cc(CCC(=O)OCC(O)CO)nc(-c2nc(=O)c3ccc(Cl)cc3s2)c1 (stereo not shown) [compound 21, 2,3-Dihydroxypropyl 3-[6-(7-chloro-4-oxo-4H-1,3-benzothiazin-2-yl)-4-(methylsulfonyl)pyridin-2-yl]propanoate]	240 to 241		
CCCOC(=O)CCc1cc(S(C)(=O)=O)cc(-c2nc(=O)c3ccc(Cl)cc3s2)n1 [compound 19, Propyl 3-[6-(7-chloro-4-oxo-4H-1,3-benzothiazin-2-yl)-4-(methylsulfonyl)pyridin-2-yl]propanoate]	235.4 to 235.5		
